Measurements taken from PMC11768370, “Etodolac Single Dose Metabolic Profile Elucidation: Pharmacokinetics and Adverse Events in Healthy Volunteers” (Pharmaceuticals, 2025).
Where “and” joins values, the source holds several entries; their conditions need not be identical. Equal values may be shown once. Read-outs that look alike come from different tables or passages of the source.

Assay: Etodolac pharmacokinetic profile after a single dose, plasma LC-MS/MS, non-compartmental
Type: in vivo, human
Method: The analytical method used to calculate the pharmacokinetic parameters was validated according to Resolution No. 27/2012 of the Agência Nacional de Vigilância Sanitária (ANVISA). In this study, an LC-MS/MS system was used to quantify ETO. Chromatographic separations were performed using an LC-20AD analytical pump (Shimadzu, Kyoto, Japan) and a SIL-20A HT autosampler (Shimadzu, Kyoto, Japan), coupled to a Quattro Micro (Micromass, Newcastle, UK) system for triple quadrupole mass spectrometry analyses with an electrospray ionization (ESI) source (Waters, Newcastle, UK). The targeted analysis for ETO was detected by a multiple reaction monitoring (MRM) transition of 286 > 242, and mefenamic acid (Internal Standard) was detected by an MRM transition of 240 > 196 in negative acquisition mode. Data were collected using MassLynx 4.1 (Waters, Newcastle, UK). Further information on the validation method can be found in Supplementary Materials and Methods. WinNonLin 8.3 software (Pharsight, New Jersey, USA) was used to calculate pharmacokinetic parameters using non-compartmental statistics. […]
Table S3. Pharmacokinetics parameters. Pharmacokinetics parameters were calculated for each participant using the concentration across time data. […]
1. Volunteers and Study Design
The present study was nested in a single-dose, open-label, randomized pharmaco-bioequivalence study performed under biosafety and ethical standards. The reference formulation was an etodolac controlled-release coated tablet of 500 mg Flancox® with the administration of one single-dose tablet.
The volunteers were hospitalized at 7:00 p.m. and had supper before 9:00 p.m. After an overnight fast, a speciﬁc high-calorie diet was administered 30 minutes before taking the medication. They received (at ∼7:00 a.m.) a tablet of 500 mg of etodolac with 200 mL of water. Lunch: 4 hours after taking the medication. Afternoon snack: 8 hours after taking the medication. Dinner: 10 hours after […]
At 2 h before and 6, 8, and 12 h after the dose administration, vital signs were checked. The […] period was 24 h, during which period, blood samples (5 mL) from a suitable antecubital vein were collected, post-dosing via an indwelling catheter, into ethylenediaminetetraacetic acid […]
for 10 min at 4°C, and the plasma was stored at -70°C until assayed. Samples were handled under yellow light due to the photosensitivity of the drug.
2. Determination of Pharmacokinetic Proﬁle by LC-MS/MS
Chromatographic separations were performed in an LC-20AD analytical pump and SIL-20A HT autosampler from Shimadzu. The stationary phase employed an Agilent Polaris 5 µm C18-A 50 x […]
2,0mm column (Phenomenex). The mobile phase consisted of a solution of acetonitrile and 5 mM ammonium acetate, ﬂowing at 0.3 mL/min in proportion (8:2). The autosampler was maintained at 22°C, with an injection volume of 5 µl and 2.5-minute duration. Mass spectrometry was conducted on a Quattro Micro mass spectrometer from Micromass, equipped with an electrospray ionization (ESI) source. While operating in negative ionization mode with nitrogen as the desolvation gas, ESI source parameters were set as follows: source temperature of 100°C, desolvation temperature of 450°C, desolvation ﬂow of 800 L h-1, and capillary voltage of 3,50 kV. Etodolac was detected by a multiple reaction monitoring (MRM) transition of 286 > 242 using a cone voltage of 30 eV, and mefenamic acid was detected by an MRM transition of 240 > 196 using a cone voltage of 30 eV. Data was acquired using MassLynx 4.1.
2.1. Preparation of Standards and Quality Controls
Etodolac stock solution (108.5 µg/mL) was prepared in methanol and diluted with H2O to obtain the corrected stock solution (100 µg/mL) for the spiking calibration curve and quality controls (QC) samples. QC samples were prepared in the following levels: low, 0,6 µg/mL (LQC); medium, 50 µg/mL (MQC); high, 75 ug/mL (HQC); and a dilution, 42.5 µg/mL (DQC), calculated by taking the […]

[1] = Maximum of 37 participants, single dose 500 mg
[2] = Minimum of 37 participants, single dose 500 mg
[3] = individual participants P1-P37, single dose 500 mg

CCc1cccc2c3c([nH]c12)C(CC)(CC(=O)O)OCC3 (stereo not shown) [Etodolac]
AUC0-t [1]: 480.52 µg·h/mL
Cmax [1]: 59070 ng/mL
Kel [1]: 0.15 h⁻¹
T1/2 [1]: 20.09 h
Tmax [1]: 5.00 h
AUC0-t [2]: 94.14 µg·h/mL
Cmax [2]: 18690 ng/mL
Kel [2]: 0.035 h⁻¹
T1/2 [2]: 4.76 h
Tmax [2]: 0.75 h
AUC0-t (both sexes, human, oral, 500 mg, Mean of 37 participants, single dose 500 mg, read-out: AUC0-t): 203 µg·h/mL
Cmax (both sexes, human, oral, 500 mg, Mean of 37 participants, single dose 500 mg, read-out: Cmax): 35500 ng/mL
k el (both sexes, human, oral, 500 mg, Mean of 37 participants, single dose 500 mg, read-out: Kel (converted)): 2.5e-05 s⁻¹
half-life (both sexes, human, oral, 500 mg, Mean of 37 participants, single dose 500 mg, read-out: T1/2 (converted)): 8.2 h
Tmax (both sexes, human, oral, 500 mg, Mean of 37 participants, single dose 500 mg, read-out: Tmax): 2.24 h
k el (both sexes, human, oral, 500 mg, overall mean (SD), 37 healthy volunteers, single dose Flancox 500 mg tablet after high-calorie diet, read-out: elimination rate constant (Kel) (converted)): 2.5e-05 s⁻¹
half-life (both sexes, human, oral, 500 mg, overall mean (SD), 37 healthy volunteers, single dose Flancox 500 mg tablet after high-calorie diet, read-out: half-life (T1/2) (converted)): 8.2 h
Cmax (both sexes, human, oral, 500 mg, overall mean (SD), 37 healthy volunteers, single dose Flancox 500 mg tablet after high-calorie diet, read-out: maximum concentration (Cmax)): 35500 ng/mL
Tmax (both sexes, human, oral, 500 mg, overall mean (SD), 37 healthy volunteers, single dose Flancox 500 mg tablet after high-calorie diet, read-out: time to maximum concentration (Tmax)): 2.24 h
AUC0-t (both sexes, human, oral, overall mean (SD), 37 healthy volunteers, single dose Flancox 500 mg tablet after high-calorie diet, read-out: area under the curve from time zero to time t (AUC0-t)): 203 µg·h/mL
Cmax [3]: 45680 ng/mL
Tmax [3]: 2.25 h and 2.75 h and 1.50 h and 3.00 h and 1.25 h and 3.67 h and 4.00 h and 3.33 h and 2.50 h and 1.00 h and 2.00 h and 1.75 h and 5.00 h and 0.75 h
